Test results reported in patent US5814627A, “3, 5-disubstituted and 3, 4, 5-trisubstituted 2-isoxazolines and isoxazoles, process for their preparation and their use as pharmaceuticals” (Hoechst Aktienegesellschaft, priority 1994, dated 1998).

How the values were obtained:
Assay type in all cases: cell-based
[1] = test system: polymorphonuclear leucocytes (PMNL); assay: Test 1: Release of proteolytic activity from human PMNL; conditions: Homo sapiens, PMNL, read-out: Test 1 residual activity (release of proteolytic activity), percent of control
In short: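 Human peripheral-blood PMNL (5·10^6 cells/ml in PBS with 7.5 mM glucose) preincubated 20 min at 37° C. with compound, then primed with cytochalasin B (5 μg/ml) and TNF (30 ng/ml), and stimulated with fMLP (10 nmol/l) for 60 min. Released protease in supernatant read with methoxysuccinyl-nitroanilide substrate at 405 nm over 0-60 min, pH 7.5.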

[2] = test system: leukotriene B4 synthesis in white blood cells; assay: Test 3: LTB4 formation by white blood cells; conditions: Homo sapiens, read-out: Test 3 residual activity (LTB4 formation), percent of control
Method: TEST 3. LTB4 formation by white blood cells
Isolation of white blood cells:
40 ml of human blood were mixed with 8 ml of 6% dextran solution (dextran, mw: 480,000 in PM16). After one hour at room temperature, the supernatant,which was composed of white blood cells, was removed, diluted with an equal volume of PM16, and centrifuged for 15 minutes at 300×g (1600 rpm). The sediment was next resuspended in approximately 5-6 ml of PM16 and, once the cell count had been determined in a Coulter Counter, adjusted to 10^7 cells/ml.
The test mixture comprised 0.24 ml of cell suspension, 0.03 ml of 20 mM CaCl2 /5 mM MgCl2 and 5 μl of test substance. Following 15 minutes of preincubation at 37° C., the reaction was started with 0.03 ml of A23187/glutathione (100 μg of A23187/ml; 15.4 μg of glutathione/ml). The incubation was terminated after 5 minutes at 37° C. by immediate cooling of the samples down to 0° C. After centrifuging for 2 minutes in an Eppendorff Centrifuge (0° C.), the supernatant was removed and examined chromatographically.
High pressure liquid chromatography (HPLC): the HPLC equipment comprises a Kratos pump (Spectro-flow 400), a cooled automatic BT 7041 sample injector (Biotronik) having a 75 μl sample loop, a Nucleosil C18 column (100*3 mm, 5 μm particles of Chrompack), a UV detector (Kratos) Spectroflow 757 (wavelength: 280 nm, measurement range: 0.1 AUFS, time constant: 0.5 s) and a Spectra Physics integrator (SP 4270). The eluent (725 ml of methanol, 275 ml of water and 0.1 ml of acetic acid) was supplied at a flow rate of 0.7 ml/minute and at a pressure of about 100 bar.
When doing this, the measurement range which has been set can be examined and altered if necessary. It is also vital to measure the test substances at the particular test concentration (e.g.: 10^-5 M) in PM16 before the cell incubation, since the test substances might conceal the LTB4 peak. If this is the case, a lower concentration must be selected.
(§1) The values in the table show the concentration of the test substance which was employed in μM and, besides this, the residual activity measured in percent based on the control, which was set to be 100%. The interleukin is additionally indicated in test 4.

[3] = test system: TNFα release from mononuclear cells; assay: Test 4: cytokine release from LPS-stimulated mononuclear cells, TNFα; conditions: Homo sapiens, read-out: Test 4 residual activity (TNFα release), percent of control
Method: Test 4. Stimulation of the cytokine release
Isolation of mononuclear cells from human blood
10 ml of human blood, stabilized with 1 ml of 3.8% sodium citrate solution, were diluted with 10 ml of PM16 (Serva, Heidelberg) and underlaid with 15 ml of Lymphoprep (Dr. Molter GmbH, Heidelberg). The samples were centrifuged, at room temperature for 40 minutes, at 400×g (1600 rpm, Minifuge 2, Heraeus, Osterode). The mononuclear cells are visible as a white ring at the Lymphoprep/plasma interface. This ring was carefully removed with a syringe, diluted with an equal volume of PM16, and centrifuged for 10 minutes at 400×g. The sediment was washed with approximately 10 ml of RPMI1640 (+300 mg/l L-glutamine, Gibco, Eggenstein) (Wallis, 1986). After the cells had been resuspended in approximately 1 ml of RPMI1640 (+300 mg/l L-glutamine+25 mM HEPES+100 μg/ml streptomycin+100 μg/ml penicillin), the cell density was determined using a Coulter Counter JT (Coulter Diagnostics) and adjusted to 5*10^6 /ml. Typically, the cells are composed of 90% lymphocytes and 10% monocytes.
230 μl of mononuclear cells were incubated, at 37° C.; 5% CO2 for 20-22 hours (5 hours in the case of IL-6), with 10 μl of test substance (10 μM in DMSO/water, 1/10) and 10 μl of lipopolysaccharide (LPS; 500 μg dissolved in 1 ml of DMSO and diluted 1/10 with water prior to beginning the test; from Salmonella abortus equi, Sigma, Deisenhofen). The samples were cooled down to 0° C. in an ice bath and centrifuged in a Sigma centrifuge (2 minutes; 2000 rpm). Aliquots of the supernatant are measured with an ELISA (Biermann, Bad Nauheim). The abbreviation IL stands for interleukin and TNF for tumor necrosis factor alpha.
as §1

CC(C)(C)c1cc(C2CC(CCC(=O)O)=NO2)cc(C(C)(C)C)c1O (centres unmarked) [Example 63, 5-(4-Hydroxy-3,5-di-tert-butylphenyl)-2-isoxazolin-3-ylpropionic acid]
activity at 10 µM [1]: 88%
activity at 100 µM [1]: 66%
activity at 10 µM [2]: 91%

CC(O)c1cc(-c2cc(C(C)(C)C)c(O)c(C(C)(C)C)c2)no1 (centres unmarked) [Example 28]
activity at 1 µM [1]: 97%
activity at 10 µM [1]: 59%
activity at 1 µM [2]: 14%
activity at 10 µM [2]: 0%

CCOC(=O)CNC(=O)OCCCc1cc(-c2cc(C(C)(C)C)c(O)c(C(C)(C)C)c2)no1 [Example 41, N-(3-(4-Hydroxy-3,5-di-tert-butylphenyl)isoxazol-5-ylpropoxycarbonyl)glycine ethyl ester]
activity at 100 µM [1]: 78%
activity at 10 µM [3]: 89%
activity at 10 µM [2]: 13%

CC(C)(C)c1cc(-c2cc(CNS(=O)(=O)C(F)(F)F)on2)cc(C(C)(C)C)c1O [Example 49, N-(3-(4-Hydroxy-3,5-di-tert-butylphenyl)isoxazol-5-ylmethyl)trifluoromethanesulfonamide]
activity at 1 µM [1]: 88%
activity at 10 µM [1]: 23%
activity at 100 µM [1]: 19%
activity at 10 µM [3]: 91%
activity at 1 µM [2]: 90%
activity at 10 µM [2]: 0%

CC(C)(C)c1cc(C2=NOC(c3ccccn3)C2)cc(C(C)(C)C)c1O (centres unmarked) [Example 9]
activity at 100 µM [1]: 64%
activity at 10 µM [3]: 63%
activity at 1 µM [2]: 59%
activity at 10 µM [2]: 0%
